pIC50: −log10 of the molar value. Like-named read-outs stand apart in the source and are kept apart here.
How the values were obtained:
Assay type in all cases: biochemical
[1] = target: T1, recombinant human FAPα (rhFAPα) (Homo sapiens, UniProt Q12884); experiment: FAPα enzymatic exopeptidase (dipeptidase) activity assay, Z-Gly-Pro-AMC; details: for inhibition at 1 µM: exopeptidase inhibition at 1 μM test compound
T1 construct: purchased R&S system (so in the source)
T1 sequence (Q12884 1-760): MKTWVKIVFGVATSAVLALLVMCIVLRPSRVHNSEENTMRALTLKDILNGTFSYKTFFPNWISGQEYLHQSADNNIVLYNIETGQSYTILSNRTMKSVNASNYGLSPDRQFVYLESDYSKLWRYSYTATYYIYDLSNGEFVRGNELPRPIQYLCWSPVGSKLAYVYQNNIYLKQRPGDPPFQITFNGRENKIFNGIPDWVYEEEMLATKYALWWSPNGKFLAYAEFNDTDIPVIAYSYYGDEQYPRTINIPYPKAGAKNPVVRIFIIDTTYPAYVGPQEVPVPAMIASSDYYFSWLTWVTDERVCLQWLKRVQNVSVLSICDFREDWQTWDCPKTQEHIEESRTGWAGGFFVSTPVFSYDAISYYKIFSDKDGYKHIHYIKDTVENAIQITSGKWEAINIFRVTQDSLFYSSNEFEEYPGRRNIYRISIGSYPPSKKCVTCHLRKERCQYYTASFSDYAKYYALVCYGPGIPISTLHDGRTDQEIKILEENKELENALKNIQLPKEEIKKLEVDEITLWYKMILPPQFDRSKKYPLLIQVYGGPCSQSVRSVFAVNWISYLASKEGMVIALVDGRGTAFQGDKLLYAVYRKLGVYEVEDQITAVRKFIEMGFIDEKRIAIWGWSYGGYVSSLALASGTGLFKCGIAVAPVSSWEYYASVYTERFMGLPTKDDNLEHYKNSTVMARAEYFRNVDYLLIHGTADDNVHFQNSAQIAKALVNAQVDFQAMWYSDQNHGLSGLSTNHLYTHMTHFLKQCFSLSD

[2] = target: T2, recombinant human DPPIV (rhDPPIV) (Homo sapiens, UniProt P27487); experiment: DPPIV enzymatic activity assay, H-Gly-Pro-pNA
T2 construct: purchased R&S system (so in the source)

[3] = target: T3, recombinant human PREP (rhPREP) (Homo sapiens, UniProt P48147); experiment: PREP enzymatic activity assay, Z-Gly-Pro-AMC
T3 sequence (P48147 1-710): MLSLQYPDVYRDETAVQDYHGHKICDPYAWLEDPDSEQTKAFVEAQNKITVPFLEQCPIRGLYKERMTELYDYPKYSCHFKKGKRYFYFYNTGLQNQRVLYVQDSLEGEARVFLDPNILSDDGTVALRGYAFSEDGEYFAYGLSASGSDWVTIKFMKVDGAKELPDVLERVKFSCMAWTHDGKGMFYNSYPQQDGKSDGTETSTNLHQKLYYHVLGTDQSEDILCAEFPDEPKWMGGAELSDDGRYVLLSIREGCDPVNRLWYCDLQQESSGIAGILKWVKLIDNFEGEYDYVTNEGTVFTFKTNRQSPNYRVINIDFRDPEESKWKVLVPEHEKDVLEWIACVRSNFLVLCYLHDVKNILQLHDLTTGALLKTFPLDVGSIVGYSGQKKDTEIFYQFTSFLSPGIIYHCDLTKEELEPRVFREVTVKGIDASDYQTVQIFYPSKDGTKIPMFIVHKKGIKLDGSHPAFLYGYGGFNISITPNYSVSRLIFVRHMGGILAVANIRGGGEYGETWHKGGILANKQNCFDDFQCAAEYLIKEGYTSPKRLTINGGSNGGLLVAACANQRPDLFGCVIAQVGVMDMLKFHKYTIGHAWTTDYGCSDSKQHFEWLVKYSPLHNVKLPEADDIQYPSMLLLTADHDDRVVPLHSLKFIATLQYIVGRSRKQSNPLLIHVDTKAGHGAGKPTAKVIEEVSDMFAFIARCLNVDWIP

[4] = target: T4, recombinant human DPP9 (rhDPP9) (Homo sapiens, UniProt Q86TI2); experiment: DPP9 enzymatic activity assay, 40 ng rhDPP9, HEPES buffer; details: Table 3A
T4 construct: purchased R&S system / R&D systems (both sic) 5419-SE

[5] = target: T4, recombinant human DPP9 (rhDPP9); experiment: DPP9 inhibition assay, 10 ng rhDPP9, Tris-HCl/BSA buffer; details: Table 3B
[6] = Table 2, read-out: rhFAPα (% exo inh @ 1 μM)
[7] = Table 3B, read-out: rhFAPα % exo inh @ 1 μM
[8] = exopeptidase, Table 2, read-out: rhFAPα (exo IC50)
[9] = exopeptidase, Table 3A, read-out: rhFAPα (exo IC50)

T4 sequence (Q86TI2 whole entry): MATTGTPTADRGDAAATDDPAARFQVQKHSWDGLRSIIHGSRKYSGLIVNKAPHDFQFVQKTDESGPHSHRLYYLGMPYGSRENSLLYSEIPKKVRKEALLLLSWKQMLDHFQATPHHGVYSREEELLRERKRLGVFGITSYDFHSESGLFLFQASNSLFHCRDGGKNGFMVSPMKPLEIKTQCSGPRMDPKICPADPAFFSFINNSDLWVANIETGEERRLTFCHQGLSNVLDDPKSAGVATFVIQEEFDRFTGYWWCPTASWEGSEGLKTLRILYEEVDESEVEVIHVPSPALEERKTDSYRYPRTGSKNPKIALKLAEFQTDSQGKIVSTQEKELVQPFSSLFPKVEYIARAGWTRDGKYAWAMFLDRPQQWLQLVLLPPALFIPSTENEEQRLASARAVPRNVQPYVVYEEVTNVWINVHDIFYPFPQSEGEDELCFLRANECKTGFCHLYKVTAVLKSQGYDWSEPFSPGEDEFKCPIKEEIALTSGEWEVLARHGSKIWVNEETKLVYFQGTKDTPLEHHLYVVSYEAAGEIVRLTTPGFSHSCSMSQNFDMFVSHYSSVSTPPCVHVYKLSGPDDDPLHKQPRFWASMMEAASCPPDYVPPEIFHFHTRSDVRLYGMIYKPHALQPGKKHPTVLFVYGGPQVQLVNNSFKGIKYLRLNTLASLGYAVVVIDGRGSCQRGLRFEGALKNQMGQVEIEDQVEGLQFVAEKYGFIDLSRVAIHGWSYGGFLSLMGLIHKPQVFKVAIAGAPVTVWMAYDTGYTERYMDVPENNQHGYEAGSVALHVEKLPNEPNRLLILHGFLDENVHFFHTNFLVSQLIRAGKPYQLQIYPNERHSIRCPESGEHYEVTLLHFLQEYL
T2 sequence (P27487 whole entry): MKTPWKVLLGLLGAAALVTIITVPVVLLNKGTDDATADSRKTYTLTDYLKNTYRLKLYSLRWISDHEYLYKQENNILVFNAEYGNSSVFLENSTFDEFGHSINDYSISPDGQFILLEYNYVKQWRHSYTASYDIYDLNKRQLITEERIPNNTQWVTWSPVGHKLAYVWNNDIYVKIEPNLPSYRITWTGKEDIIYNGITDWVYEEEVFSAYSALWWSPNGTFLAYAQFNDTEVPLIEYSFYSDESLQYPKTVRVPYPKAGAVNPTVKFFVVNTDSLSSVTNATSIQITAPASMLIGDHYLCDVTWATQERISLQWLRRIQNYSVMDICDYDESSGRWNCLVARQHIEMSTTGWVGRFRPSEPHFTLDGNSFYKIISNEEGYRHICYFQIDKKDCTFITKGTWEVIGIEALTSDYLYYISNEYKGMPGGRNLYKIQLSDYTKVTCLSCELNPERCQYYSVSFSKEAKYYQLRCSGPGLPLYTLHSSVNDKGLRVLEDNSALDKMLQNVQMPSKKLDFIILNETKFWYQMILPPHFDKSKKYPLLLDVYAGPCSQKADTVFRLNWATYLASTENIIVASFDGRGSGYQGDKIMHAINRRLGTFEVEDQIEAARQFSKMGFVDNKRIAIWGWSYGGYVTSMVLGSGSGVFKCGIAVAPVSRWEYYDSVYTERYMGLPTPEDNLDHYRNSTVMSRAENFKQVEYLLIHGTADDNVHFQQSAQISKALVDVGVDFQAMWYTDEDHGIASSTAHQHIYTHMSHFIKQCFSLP

pIC50 ([1]; Table 3B, read-out: rhFAP IC50) | inhibition at 1 µM [1, 6] [%] | inhibition at 1 µM [1, 7] [%] | pIC50 [1, 8] | pIC50 [1, 9] | pIC50 ([2]; Table 3A) | pIC50 ([2]; Table 3B) | pIC50 ([3]; Table 3A) | pIC50 ([3]; Table 3B) | pIC50 [4] | pIC50 [5] | Structure (SMILES)
> 6.00 | > 50 | > 50 | > 6.00 | > 6.00 | < 5.00 | < 5.00 | < 5.00 | < 5.00 | < 5.00 | 5.00 to 6.00 | N#C[C@@H]1CC(F)(F)CN1C(=O)CNC(=O)c1ccncc1NC(=O)Cc1ccccc1 [Compound 1, (S)—N-(2-(2-cyano-4,4-difluoropyrrolidin-1-yl)-2-oxoethyl)-3-(2-phenylacetamido)isonicotinamide]
> 6.00 | > 50 | > 50 | > 6.00 | > 6.00 | 5.00 to 6.00 | 5.00 to 6.00 | < 5.00 | < 5.00 | < 5.00 | 5.00 to 6.00 | CC(Nc1cnccc1C(=O)NCC(=O)N1CC(F)(F)C[C@H]1C#N)c1ccc(F)cc1 (stereo partly drawn) [Compound 4, N-(2-((S)-2-cyano-4,4-difluoropyrrolidin-1-yl)-2-oxoethyl)-3-((1-(4-fluorophenyl)ethyl)amino)isonicotinamide]
> 6.00 | > 50 | > 50 | > 6.00 | > 6.00 |  |  |  |  | 5.00 to 6.00 | 5.00 to 6.00 | N#C[C@@H]1CC(F)(F)CN1C(=O)CNC(=O)c1ccnc(N2CCN(C(c3ccc(F)cc3)c3ccc(F)cc3)CC2)c1 [Compound 6, (S)-2-(4-(bis(4-fluorophenyl)methyl)piperazin-1-yl)-N-(2-(2-cyano-4,4-difluoropyrrolidin-1-yl)-2-oxoethyl)isonicotinamide]
> 6.00 | > 50 | > 50 | > 6.00 | > 6.00 | 5.00 to 6.00 | 5.00 to 6.00 | 5.00 to 6.00 | 5.00 to 6.00 | 5.00 to 6.00 | 5.00 to 6.00 | N#C[C@@H]1CC(F)(F)CN1C(=O)CNC(=O)c1ccncc1CCc1ccc(Cl)cc1 [Compound 10, (S)-3-(4-chlorophenethyl)-N-(2-(2-cyano-4,4-difluoropyrrolidin-1-yl)-2-oxoethyl)isonicotinamide]
> 6.00 |  | > 50 |  |  |  | < 5.00 |  | < 5.00 |  | 5.00 to 6.00 | C/C(=C\c1cnccc1C(=O)NCC(=O)N1CC(F)(F)C[C@H]1C#N)c1ccc(OC(F)(F)F)cc1 [Compound 19]
> 6.00 |  | > 50 |  |  |  | < 5.00 |  | < 5.00 |  | 5.00 to 6.00 | C/C(=C\c1cnccc1C(=O)NCC(=O)N1CC(F)(F)C[C@H]1C#N)c1ccc(C(F)(F)F)cc1 [Compound 20]
> 6.00 |  | > 50 |  |  |  | 5.00 to 6.00 |  | < 5.00 |  | 5.00 to 6.00 | N#C[C@@H]1CC(F)(F)CN1C(=O)CNC(=O)c1ccncc1/C=C/c1ccc(C(F)(F)F)cc1 [Compound 24]
> 6.00 |  | > 50 |  |  |  | < 5.00 |  | < 5.00 |  | > 6.00 | C/C(=C\c1cnccc1C(=O)NCC(=O)N1CC(F)(F)C[C@H]1C#N)c1ccc(Cl)cc1 [Compound 26]
> 6.00 |  | > 50 |  |  |  | < 5.00 |  | < 5.00 |  | 5.00 to 6.00 | COc1ccc(/C(C)=C/c2cnccc2C(=O)NCC(=O)N2CC(F)(F)C[C@H]2C#N)cc1 [Compound 29]
> 6.00 |  | > 50 |  |  |  | < 5.00 |  | < 5.00 |  | > 6.00 | N#C[C@@H]1CC(F)(F)CN1C(=O)CNC(=O)c1ccncc1/C=C/c1ccc(OC(F)(F)F)cc1 [Compound 33]
> 6.00 |  | > 50 |  |  |  | < 5.00 |  | < 5.00 |  | > 6.00 | N#C[C@@H]1CC(F)(F)CN1C(=O)CNC(=O)c1ccnc2ccc(-c3ccc(C(F)(F)F)cc3)cc12 [Compound 35]
> 6.00 |  | > 50 |  |  |  | < 5.00 |  | < 5.00 |  | < 5.00 | COc1ccc(C#Cc2cnccc2C(=O)NCC(=O)N2CC(F)(F)C[C@H]2C#N)cc1 [Compound 36]
> 6.00 |  | > 50 |  |  |  | < 5.00 |  | < 5.00 |  | < 5.00 | N#C[C@@H]1CC(F)(F)CN1C(=O)CNC(=O)c1ccncc1C#Cc1ccc(Cl)cc1 [Compound 37]
> 6.00 |  | > 50 |  |  |  | < 5.00 |  | < 5.00 |  | > 6.00 | N#C[C@@H]1CC(F)(F)CN1C(=O)CNC(=O)c1ccnc2ccc(-c3ccc(C(F)(F)F)nc3)cc12 [Compound 38]
> 6.00 |  | > 50 |  |  |  | < 5.00 |  | < 5.00 |  | > 6.00 | C/C(=C\c1ccc2nccc(C(=O)NCC(=O)N3CC(F)(F)C[C@H]3C#N)c2c1)c1ccc(Cl)cc1 [Compound 39]
> 6.00 |  | > 50 |  |  |  | < 5.00 |  | < 5.00 |  | > 6.00 | N#C[C@@H]1CC(F)(F)CN1C(=O)CNC(=O)c1ccnc2ccc(/C=C/c3ccc4cc(Cl)ccc4c3)cc12 [Compound 42]
> 6.00 |  | > 50 |  |  |  | < 5.00 |  | < 5.00 |  | > 6.00 | COc1ccc(/C=C/c2ccc3nccc(C(=O)NCC(=O)N4CC(F)(F)C[C@H]4C#N)c3c2)cn1 [Compound 43]
> 6.00 |  | > 50 |  |  |  | < 5.00 |  | < 5.00 |  | > 6.00 | N#C[C@@H]1CC(F)(F)CN1C(=O)CNC(=O)c1ccnc2ccc(/C=C/c3ccc(OC(F)(F)F)cc3)cc12 [Compound 48]
> 6.00 |  | > 50 |  |  |  |  |  |  |  | > 6.00 | Cc1ccc(/C=C/c2ccc3nccc(C(=O)NCC(=O)N4CC(F)(F)C[C@H]4C#N)c3c2)nc1 [Compound 49]
> 6.00 |  | > 50 |  |  |  |  |  |  |  | 5.00 to 6.00 | CC(C)(C)c1ccc(/C=C/c2ccc3nccc(C(=O)NCC(=O)N4CC(F)(F)C[C@H]4C#N)c3c2)cc1 [Compound 50]
> 6.00 |  | > 50 |  |  |  |  |  |  |  | > 6.00 | N#C[C@@H]1CC(F)(F)CN1C(=O)CNC(=O)c1ccnc2ccc(/C=C/c3ccc(C(F)(F)F)cc3)cc12 [Compound 51]
> 6.00 |  | > 50 |  |  |  |  |  |  |  | 5.00 to 6.00 | CN1CCN(c2ccc(-c3ccc4nccc(C(=O)NCC(=O)N5CC(F)(F)C[C@H]5C#N)c4c3)cn2)CC1 [Compound 52]
> 6.00 |  | > 50 |  |  |  | < 5.00 |  |  |  |  | C[C@H](Nc1cnccc1C(=O)NCC(=O)N1CC(F)(F)C[C@H]1C#N)c1ccc(F)cc1 [Compound 190]
> 6.00 |  | > 50 |  |  |  | < 5.00 |  | 5.00 to 6.00 |  |  | C[C@@H](Nc1cnccc1C(=O)NCC(=O)N1CC(F)(F)C[C@H]1C#N)c1ccc(F)cc1 [Compound 191]
> 6.00 |  | > 50 |  |  |  | < 5.00 |  | < 5.00 |  |  | CC(C)(O)c1ccc(-c2ccc3nccc(C(=O)NCC(=O)N4CC(F)(F)C[C@H]4C#N)c3c2)cc1 [Compound 195]

From patent US20200216417A1, “INHIBITORS OF FIBROBLAST ACTIVATION PROTEIN” (Praxis Biotech LLC, priority 2019, published 2020)
